The source of these data is PMC9457583, “New Chemicals Suppressing SARS-CoV-2 Replication in Cell Culture” (Molecules, 2022).

Series [1] concerns SARS-CoV-2. Nature of the series: microbe, parasite or virus in culture. The format is cell-based.
Series [2] has as its system SARS-CoV-2. Details: method as in PMID 35287429. The conditions noted are these: read-out: EC50 (SARS-CoV-2 replication in cell culture); cited from earlier work.
The subject of series [3] is SARS-CoV-2. Conditions: SARS-CoV-2-infected Vero E6/TMPRSS2 cells; cited from earlier work.
Series [4] relates to SARS-CoV-2. Also noted: method as in PMID 33062953. The conditions noted are these: cited from earlier work.
For series [5], the system named is SARS-CoV-2. Details: method as in PMID 34726479. Conditions: Vero E6 cell culture; read-out: EC50 (virus replication); cited from earlier work.
For series [6], the system named is SARS-CoV-2 Mpro. Conditions: read-out: IC50 (Mpro); cited from earlier work.
The subject of series [7] is SARS-CoV-2. Also noted: method as in PMID 32855413. The conditions noted are these: cited from earlier work.
Details of series [8]: method as in PMID 32855413. The conditions noted are these: read-out: CC50 (cytotoxicity); cited from earlier work.
Where [9] appears, read: Severe acute respiratory syndrome coronavirus 2, Vero C1008, Vero E6 cells, MOI 0.1, 96 h, MTT, read-out: EC50.
Setting [10] is: Severe acute respiratory syndrome coronavirus 2, Vero C1008, 96 h.

Where two headings read alike, the source gives them in different places. Peptide text beside a SMILES is read from it. * marks the point of attachment. Cbz = O=C(OCc1ccccc1)*

As for `CCC(CC)COC(=O)[C@H](C)N[P@](=O)(OC[C@H]1O[C@@](C#N)(c2ccc3c(N)ncnn23)[C@H](O)[C@@H]1O)Oc1ccccc1` [remdesivir, reference compound], the EC50 – broadly, the concentration that produces a half-maximal response – in series [1] (setting [9]) was found to be 2.94 ± 0.67 µM.

As for `c1ccc2cc(Nc3nc(Nc4ccc5ccccc5c4)nc(N4CCCCCC4)n3)ccc2c1` [Compound 9a, 6-(azepan-1-yl)-N,N ^′ -di(naphthalen-2-yl)-1,3,5-triazine-2,4-diamine], the melting point (commonly the temperature, or range, at which the solid turns liquid) is 164 to 165 °C. For the same molecule, the concentration for a half-maximal effect (EC50) in series [1] (setting [9]) is 18.2 ± 4.2 µM.

Regarding `CC(C)C[C@@H](C=O)NC(=O)[C@H](CC(C)C)NC(=O)[C@H](CC(C)C)NC(=O)OCc1ccccc1` [MG–132] (Cbz-Leu-Leu-Leu-aldehyde), in series [2], the EC50 was 0.1 µM.

`Clc1ccc2nc(OCc3ccccc3Cl)c(N3CCOCC3)c(-c3ccccc3)c2c1` [Compound 6a, 6-chloro-2-[(2-chlorobenzyl)oxy]-3-(morpholin-4-yl)-4-phenylquinoline]: the EC50 in series [1] (setting [9]) was 4.77 ± 1.87 µM.

`CN1CCN(c2nc(Nc3cccc4ccccc34)nc(Nc3cccc4ccccc34)n2)CC1` [Compound 9c, 6-(4-methylpiperazin-1-yl)-N,N ^′ -di(naphthalen-1-yl)-1,3,5-triazine-2,4-amine] came in with a melting point of 160 to 161 °C. In addition, the EC50 in [1] (setting [9]) was 19.6 ± 2.94 µM.

In the case of `Cn1cnc(Cn2c(=O)[nH]/c(=N\c3cc4cn(C)nc4cc3Cl)n(Cc3cc(F)c(F)cc3F)c2=O)n1` [Compound S-217622], the concentration for a half-maximal effect (EC50) in [3] is 0.37 µM.

Turning to `COc1ccc2c(c1)-c1c(ssc1=S)C(C)(C)N2C(=O)COc1ccc2ccccc2c1` [Compound 3d], the melting point was 136 to 137 °C. Further, the EC50 in [1] (setting [9]) was 9.4 ± 1.67 µM.

As to `c1ccc(Nc2nc(Nc3ccccc3)nc(N3CCCCCC3)n2)cc1` [Compound 9b, 6-(azepan-1-yl)-N,N’-diphenyl-1,3,5-triazine-2,4-diamine], the melting point lay in the range of 160 to 161 °C. In series [1] (setting [9]), the EC50 is 1.04 ± 0.26 µM.

With `Cn1nc(-c2ccc(C(F)(F)F)cc2)nc2c(=O)n(C)c(=O)nc1-2` [Valrycin B], the “EC50 (virus replication in cell culture)” value in series [4] is “submicromolar”.

With `Cc1cc2c(cc1C)N(C(=O)COc1ccc3ccccc3c1)C(C)(C)c1ssc(=S)c1-2` [Compound 3a], the melting point lay in the range of 189 to 190 °C. Besides, in series [1] (setting [9]), the EC50 was 0.51 ± 0.41 µM.

For `O=c1[nH]c2ccc(Cl)cc2c(-c2ccccc2)c1SC(=S)N1CCCCC1` [Compound 6b, 6-chloro-2-oxo-4-phenyl-1,2-dihydroquinolin-3-yl piperidine-1-carboditioate], in series [1] (setting [10]), the EC50 worked out at 7.62 ± 1.84 µM.

Take `Cc1ccc2c(c1)-c1c(ssc1=S)C(C)(C)N2C(=O)COc1ccc2ccccc2c1` [Compound 3c]: the melting point was in the range of 153 to 154 °C. For the same molecule, the EC50 in [1] (setting [9]) was found to be 2.71 ± 0.91 µM.

Regarding `CC(NC(=O)C(Cc1ccccc1)NC(=O)OCc1ccccc1)C(=O)F` (stereo not drawn) [Z-FA-FMK], the “EC50 (virus replication in cell culture)” value in [4] was “submicromolar”.

Molecule `Cc1ccc2c(c1)N(C(=O)COc1ccc3ccccc3c1)C(C)(C)c1ssc(=S)c1-2` [Compound 3b] yielded a melting point above 144 °C. For the same molecule, in series [1] (setting [9]), the EC50 came out at 1.16 ± 0.23 µM.

As for `CC(C)(C)[C@H](NC(=O)C(F)(F)F)C(=O)N1C[C@H]2[C@@H]([C@H]1C(=O)N[C@H](C#N)C[C@@H]1CCNC1=O)C2(C)C` [PF-07321332, nirmatrelvir], the EC50 in series [5] was 0.0853 µM.

On to `CC(C)C[C@H](NC(=O)OCc1ccccc1)C(=O)N[C@H](C=O)CC1CCNC1=O` (stereo partly drawn) [GC–373], for which the IC50 (in general, the point on the concentration scale where inhibition reaches its midpoint) in series [6] is […]. Also, the EC50 in series [7] was around 1 µM. Moreover, the CC50 (commonly the concentration giving 50% cytotoxicity) in series [8] was above 200 µM.

Regarding `CC(C)C[C@H](NC(=O)OCc1ccccc1)C(=O)N[C@@H](CC1CCNC1=O)C(O)S(=O)(=O)O` (stereo partly drawn) [GC–376], in [6], the IC50 was around 0.3 µM. In [7], the EC50 is around 1 µM. For the same molecule, the CC50 in series [8] was above 200 µM.

In the case of `CC1CCCCN1C(=S)Sc1c(-c2ccccc2)c2cc(Cl)ccc2[nH]c1=O` (stereo not drawn) [Compound 6c, 6-chloro-2-oxo-4-phenyl-1,2-dihydroquinolin-3-yl 2-methylpiperidine-1-carboditioate], the melting point was 265 to 266 °C. For the same molecule, in series [1] (setting [10]), the EC50 worked out at 22.4 ± 2.58 µM.
